Where a SMILES comes first, the peptide text is derived from it. Bridges are numbered along the chain shown (N, C = ends). [ ]: non-standard residue; d: D form. The star is where a group is joined. dPhe(4-NHCONH2) = NC(=O)Nc1ccc(C[C@@H](N)C(=O)O)cc1; Phe(4-Cl) = N[C@@H](Cc1ccc(Cl)cc1)C(=O)O; X1 = NCCNCC(CNCCN)C(=O)*
Experiments:
[1] = target: T1, HEK-SST2 cells (human SST2 receptor) (Homo sapiens, UniProt P30874); assay: Internalization and cell-surface binding in HEK-SST2 cells; format: cell-based
T1 construct: expressed in transfected cells; host or cells: HEK293 (HEK-SST2), provided by Prof; Stefan Schulz, Jena University Hospital
T1 sequence (P30874 whole entry): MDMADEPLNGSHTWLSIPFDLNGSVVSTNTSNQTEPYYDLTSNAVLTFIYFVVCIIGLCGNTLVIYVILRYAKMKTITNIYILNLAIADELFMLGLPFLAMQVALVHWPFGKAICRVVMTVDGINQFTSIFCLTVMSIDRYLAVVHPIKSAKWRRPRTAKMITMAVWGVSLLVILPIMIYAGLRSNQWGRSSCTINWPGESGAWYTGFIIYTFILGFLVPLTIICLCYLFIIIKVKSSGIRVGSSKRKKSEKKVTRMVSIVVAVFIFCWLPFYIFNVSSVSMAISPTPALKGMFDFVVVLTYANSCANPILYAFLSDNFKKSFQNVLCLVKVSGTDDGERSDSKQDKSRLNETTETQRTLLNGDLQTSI

[2] = format: physicochemical; settings: pH 7.4
Experimental: Determination of the distribution coefficient (log D) was performed by the shake-flask method in 1:1 mixture of octanol/Phosphate buffered saline (PBS). Then, 50 µL of [^99mTc]Tc-TECANT-1 or [^99mTc]Tc-TECANT-2 solution was diluted up to 500 µL with PBS (pH 7.4; 8 mM phosphate). Next, 20 µL of this solution was added to six eppendorf tubes, each containing 500 µL octanol and 480 µL PBS. The samples were vortexed for 15 min at 1400 rpm followed by centrifugation for 2 min at 4500 rpm. Aliquots of 100 µL from each phase were taken and measured in a γ-counter. The log D was calculated as the average of the logarithmic values (n = 3, six technical replicates) of the ratio between the radioactivity in the octanol and the PBS phase.

in vivo = settings: female, mouse, 20 pmol, total radioactivity
[3] = set-up: species or system human
Description: To account for various possible locations of the tumour, we used two S-values. One was the value for the liver and is representative for the liver lesions. Other was the “average abdominal S-value”, which was the average S-value for the following organs: stomach, liver, gallbladder, spleen, pancreas, small intestine, kidneys, large intestine, and adrenal glands. Estimated dose to various organs, average total body dose and effective dose are summarized in Table 3 for both radiotracers and two typical tumour locations.
Dosimetric calculations were based on the biodistribution of [^99mTc]Tc-TECANT-1 and [^99mTc]Tc-TECANT-2 (Table 3). […] Percent of injected activity per organ in a human model was evaluated according to the animal data extrapolation model:(2) (%IA/organ)human=[(%IA/g)mouse×Mmouse(g)]×(m(g)/M(kg))human
Here m is the organ mass and M is the total body weight of mouse or human. Average total weight of the mouse was measured, while human phantom has the total weight of 73 kg. The %IA/g and %IA/organ is the percentage of the injected activity concentration (i.e., per gram of tissue) and per organ, respectively. For the tumour, we assumed that the percent of injected activity uptake into the tumour is the same for mouse and human.
Subsequently, percentage of the injected activity per organ was folded with the decay curve of ^99mTc and interpolated with the exponential function. The interpolation function was used to estimate initial %ID/organ and the time-integrated activity concentration (TIAC). Absorbed dose per injected activity for various organs was calculated with the TIAC factors and S-values for a standard person from the OpenDose project. Effective dose was evaluated according to the ICRP 103 recommendations.
We also assumed that the remaining activity from the organs and tumour ends up in the bladder.

[4] = target: T1, HEK-SST2 cells (human SST2 receptor); assay: Dissociation of cell-surface bound radiotracer with or without competitor; format: cell-based
[5] = athymic nude-Foxn1^nu/Foxn1^+, Biodistribution Heart
[6] = athymic nude-Foxn1^nu/Foxn1^+, Biodistribution Liver
[7] = athymic nude-Foxn1^nu/Foxn1^+, Biodistribution Lung
[8] = athymic nude-Foxn1^nu/Foxn1^+, Biodistribution Pancreas
[9] = athymic nude-Foxn1^nu/Foxn1^+, Biodistribution Spleen
[10] = athymic nude-Foxn1nu/Foxn1+, Biodistribution Adrenals
[11] = athymic nude-Foxn1nu/Foxn1+, Biodistribution Blood
[12] = athymic nude-Foxn1nu/Foxn1+, Biodistribution Bone
[13] = athymic nude-Foxn1nu/Foxn1+, Biodistribution HEK-SST2 (+) tumour uptake
[14] = athymic nude-Foxn1nu/Foxn1+, Biodistribution Intestine
[15] = athymic nude-Foxn1nu/Foxn1+, Biodistribution Kidneys
[16] = athymic nude-Foxn1nu/Foxn1+, Biodistribution Muscle
[17] = athymic nude-Foxn1nu/Foxn1+, Biodistribution Pituitary
[18] = athymic nude-Foxn1nu/Foxn1+, Biodistribution Stomach

internalization (internalized fraction) ([1]; 30 min, 37 °C): 4.1 ± 0.1% | internalization (internalized fraction) ([1]; 4 h, 37 °C): 13.4 ± 1.7% | cell surface binding ([1]; 4 h, 37 °C, % of total radioactivity added): 50.7 ± 1.7% | cellular uptake ([1]; at 2 h/37 °C): > 50% | logD [2]: -2.53 ± 0.19 | tissue uptake at 1 h (in vivo; [5]): 0.71 ± 0.1 %ID/g | tissue uptake at 4 h (in vivo; [5]): 0.24 ± 0.06 %ID/g | tissue uptake at 24 h (in vivo; [5]): 0.05 ± 0.02 %ID/g | tissue uptake at 1 h (in vivo; [6]): 3.13 ± 0.43 %ID/g | tissue uptake at 4 h (in vivo; [6]): 1.9 ± 0.41 %ID/g | tissue uptake at 24 h (in vivo; [6]): 0.6 ± 0.1 %ID/g | tissue uptake at 1 h (in vivo; [7]): 8.94 ± 3.92 %ID/g | tissue uptake at 4 h (in vivo; [7]): 3.07 ± 1.16 %ID/g | tissue uptake at 24 h (in vivo; [7]): 0.26 ± 0.04 %ID/g | tissue uptake at 1 h (in vivo; [8]): 47.8 ± 7.86 %ID/g | tissue uptake at 4 h (in vivo; [8]): 16.9 ± 3.97 %ID/g | tissue uptake at 24 h (in vivo; [8]): 1.08 ± 0.19 %ID/g | tissue uptake at 1 h (in vivo; [9]): 1.3 ± 0.41 %ID/g | tissue uptake at 4 h (in vivo; [9]): 0.57 ± 0.11 %ID/g | tissue uptake at 24 h (in vivo; [9]): 0.2 ± 0.01 %ID/g | tissue uptake at 1 h (in vivo; [10]): 7.11 ± 3.04 %ID/g | tissue uptake at 4 h (in vivo; [10]): 4.36 ± 1.88 %ID/g | tissue uptake at 24 h (in vivo; [10]): 0.85 ± 0.18 %ID/g | tissue uptake at 1 h (in vivo; [11]): 0.79 ± 0.09 %ID/g | tissue uptake at 4 h (in vivo; [11]): 0.23 ± 0.05 %ID/g | tissue uptake at 24 h (in vivo; [11]): 0.03 %ID/g | tissue uptake at 1 h (in vivo; [12]): 1.41 ± 0.77 %ID/g | tissue uptake at 4 h (in vivo; [12]): 0.59 ± 0.23 %ID/g | tissue uptake at 24 h (in vivo; [12]): 0.35 ± 0.07 %ID/g | tissue uptake at 1 h (in vivo; [13]): 21 ± 3.92 %ID/g | tissue uptake at 4 h (in vivo; [13]): 26 ± 1.33 %ID/g | tissue uptake at 24 h (in vivo; [13]): 19 ± 2 %ID/g | tissue uptake at 4 h (in vivo; athymic nude-Foxn1nu/Foxn1+, Biodistribution HEK-SST2 (−) tumour uptake): 0.88 ± 0.37 %ID/g | tissue uptake at 1 h (in vivo; [14]): 6.48 ± 4.37 %ID/g | tissue uptake at 4 h (in vivo; [14]): 2.4 ± 1.9 %ID/g | tissue uptake at 24 h (in vivo; [14]): 0.31 ± 0.08 %ID/g | tissue uptake at 1 h (in vivo; [15]): 16.3 ± 1.83 %ID/g | tissue uptake at 4 h (in vivo; [15]): 12.6 ± 2.54 %ID/g | tissue uptake at 24 h (in vivo; [15]): 2.42 ± 0.2 %ID/g | tissue uptake at 1 h (in vivo; [16]): 0.23 ± 0.05 %ID/g | tissue uptake at 4 h (in vivo; [16]): 0.12 ± 0.06 %ID/g | tissue uptake at 24 h (in vivo; [16]): 0.05 ± 0.01 %ID/g | tissue uptake at 1 h (in vivo; [17]): 9.71 ± 2.81 %ID/g | tissue uptake at 4 h (in vivo; [17]): 6.66 ± 3.67 %ID/g | tissue uptake at 24 h (in vivo; [17]): 4.35 ± 2.87 %ID/g | tissue uptake at 1 h (in vivo; [18]): 36.5 ± 7.89 %ID/g | tissue uptake at 4 h (in vivo; [18]): 13.6 ± 3.86 %ID/g | tissue uptake at 24 h (in vivo; [18]): 1.42 ± 0.27 %ID/g | Average total body dose [3]: 3.2 μGy/MBq | Dose Bone [3]: 3.9 μGy/MBq | Dose Muscle [3]: 2.4 μGy/MBq | Dose Red marrow [3]: 3.3 μGy/MBq | Dose Small intestine wall [3]: 1.9 μGy/MBq | biological half-life of clearance of remaining activity (rest of the body) to the bladder [3]: 9.7 h | effective dose [3]: 4.9 mSv | fraction dissociated ([4]; HEK-SST2 cells, at 2 h/37 °C): < 30% | estimated dissociation half-life ([4]; absence of competitor): 98 min | total binding remaining (dissociation assay) ([4]; after 4 h, 37 °C, absence of competitor): 58.8 ± 3.3% | estimated dissociation half-life ([4]; presence of competitor): 19 min | bound fraction still remaining in the cells ([4]; presence of excess of the competitor, 37 °C): 7.9 ± 2.2%
SMILES: C[C@@H](O)[C@@H]1NC(=O)[C@H](CCCCN)NC(=O)[C@@H](Cc2ccc(NC(N)=O)cc2)NC(=O)[C@H](Cc2ccc(O)cc2)NC(=O)[C@H](NC(=O)[C@H](Cc2ccc(Cl)cc2)NC(=O)C(CNCCN)CNCCN)CSSC[C@@H](C(=O)N[C@H](Cc2ccc(O)cc2)C(N)=O)NC1=O [[^99mTc]Tc-TECANT-1, metal not drawn] (X1-[Phe(4-Cl)][dC]Y[dPhe(4-NHCONH2)]KTC[dY]-NH2; disulfide 2-7)

From PMC7824897, “Selection of the First ^99mTc-Labelled Somatostatin Receptor Subtype 2 Antagonist for Clinical Translation—Preclinical Assessment of Two Optimized Candidates” (Pharmaceuticals, 2020)
